Assay results reported in US9212204B2, “Treatment of rett syndrome using glycyl-L-2-methylprolyl-L-glutamic acid” (priority 2011, dated 2015).
Non-standard residues stand in square brackets, D forms with d. Residues, ends and D or L forms follow the SMILES beside them. αMeP = C[C@@]1(C(=O)O)CCCN1

Assays:
[1] = test system: GFAP-positive reactive astrocytes; assay: GFAP staining, astrocytosis in aged brains; assay type: in vivo, rat; conditions: i.p.; 18-month old rats; 3 d after injection; vs vehicle p<0.05, particularly 0.12 and 12 mg/kg
Procedure: To carry out these studies, tissues were fixed and embedded in paraffin and sections obtained using standard methods. Coronal sections (6 μm) containing the level of the hippocampus were cut and mounted on chrome-alum-coated slides for staining. The sections were deparaffinized in xylene, dehydrated in a series of ethanol and incubated in 0.1 M phosphate buffered saline (PBS).
Primary antibodies against glial fibrillary acidic protein (GFAP) and proliferating cell nuclear antigen (PCNA) were used to mark reactive glial cells and cells undergoing apoptosis and proliferation, respectively. […]
Control sections were processed in the same way except the primary antibody was omitted from the incubation solution. The number of PCNA positive cells was counted in the subventricular zone and the GFAP positive cells was scored in the cerebral cortex.
Using GFAP as a marker for reactive astrocytes, the number of GFAP-positive cells was counted in the CA4 sub-region of the hippocampus of aged rats treated with G-2MeP or vehicle. […]
We also evaluated effects of G-2-MePE on astrocytosis in the CA4 sub-region of the hippocampus in aged rats. […]
GFAP-positive cells were counted using a computerised program (Discovery 1). G-2-MePE was administered intra-peritoneally and the numbers of GFAP-positive cells were assessed 3d after the injection. […]

[2] = test system: layer 5 cortical neurons of MeCP2-/y mice; assay: Whole-cell recordings of spontaneous EPSCs in acute brain slices; assay type: in vivo, mouse; conditions: 20 mg/kg i.p. daily P15 to P28-P32; vs MeCP2-/y mice treated with vehicle
Procedure: For the survival measurements, the nocturnal activity analysis and the immunoblot analysis, G-2-MePE (synthesised Albany Molecular Research Inc. (Albany, N.Y.) and supplied by Neuren Pharmaceuticals Limited) is administered daily via intra-peritoneal injections (20 mg/kg, vehicle=saline, 0.01% BSA). The treatment starts at PI 5 and is maintained throughout the course of the experiments. For intracellular physiology experiments, the mice are injected daily with G-2-MePE (20 mg/kg body weight, vehicle=saline, 0.01% BSA) for 2 weeks, from P15 to P28-P32 when they are used for acute slice preparation. For optical imaging experiments, mice are injected with G-2-MePE (20 mg/kg body weight, vehicle=saline, 0.01% BSA) daily from the day of the lid suture to the day of imaging. […]
Borosilicate pipettes (3-5 MΩ, WP1) are pulled using a Sutter P-80 puller (Sutter Instruments). Cells are visualized with an Achroplan 40× water-immersion lens with infrared-DIC optics (Zeiss) and detected with an infrared camera (Hamamatsu) projecting to a video monitor. […] Then in current clamp ˜10 pulses (500 ms, 40-140 pA at 10 pA increments), are applied to quantify evoked firing rates and cellular excitability. […] Analysis is performed using a custom software package written in Matlab, with all events detected according to automated thresholds and blindly verified for each event individually by the experimenter. […]

**Q.** Which “number of reactive astrocytes (GFAP) in the CA4 region of the hippocampus” value [1] does the source give for `C[C@@]1(C(=O)N[C@@H](CCC(=O)O)C(=O)O)CCCN1C(=O)CN` [Example G-2-MePE, Glycyl-L-2-methylprolyl-L-glutamic acid] (H-Gly-[αMeP]-Glu-OH) here?
**A.** Its value is “reduced”.

**Q.** What about the “spontaneous EPSC amplitude” value [2] of the same compound?
**A.** The value was “significantly larger”.
